# Experimental data reported in BindingDB's records for doi:10.7270/Q2QF8R8B (Pcmd, 2008).
# Biological target: T1, Cathepsin G (Homo sapiens, UniProt P08311)
# T1 sequence (P08311 whole entry): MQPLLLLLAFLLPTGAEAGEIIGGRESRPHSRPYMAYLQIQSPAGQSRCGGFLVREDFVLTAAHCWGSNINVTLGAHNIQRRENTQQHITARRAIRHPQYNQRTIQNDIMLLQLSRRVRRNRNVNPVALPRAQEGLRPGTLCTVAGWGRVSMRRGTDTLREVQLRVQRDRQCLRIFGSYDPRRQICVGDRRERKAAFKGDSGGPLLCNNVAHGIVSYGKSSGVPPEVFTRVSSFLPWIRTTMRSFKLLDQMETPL
# Experiment: IC50 of CTSG protease blockers – biochemical, confirmation, dose response (AID 832)
row,IC50 [µM],SMILES
1,18.3,COc1ccc(S(=O)(=O)n2nc(OC(=O)c3ccc(C)cc3)cc2N)cc1 [4-Methyl-benzoic acid 5-amino-1-(4-methoxy-benzenesulfonyl)-1H-pyrazol-3-yl ester]
2,> 50,CCOC(=O)c1ccc(NC(=O)CS(=O)(=O)c2cn(CC)c3ccccc23)cc1 [4-[[2-(1-ethylindol-3-yl)sulfonylacetyl]amino]benzoic acid ethyl ester]
3,18.6,"Cc1nn(Cc2ccc(Cl)c(Cl)c2)c(C)c1NC(=O)c1cc(-c2ccc3c(c2)OCO3)on1 [5-(1,3-benzodioxol-5-yl)-N-[1-(3,4-dichlorobenzyl)-3,5-dimethyl-1H-pyrazol-4-yl]isoxazole-3-carboxamide]"
4,33,"COc1ccc(OC)c(-c2cc(C(=O)Nc3c(C)nn(Cc4ccccc4)c3C)no2)c1 [5-(2,5-dimethoxyphenyl)-N-[3,5-dimethyl-1-(phenylmethyl)-4-pyrazolyl]-3-isoxazolecarboxamide]"
5,21.8,"COc1ccccc1-c1cc(C(=O)NC(C)c2ccccc2)no1 (stereo unspecified) [5-(2-methoxyphenyl)-N-(1-phenylethyl)-1,2-oxazole-3-carboxamide]"
6,43.2,COc1ccccc1-c1cc(C(=O)Nc2cccnc2)no1 [5-(2-methoxyphenyl)-N-(3-pyridinyl)-3-isoxazolecarboxamide]
7,13.3,"COc1ccccc1-c1cc(C(=O)NCc2ccccc2)no1 [5-(2-methoxyphenyl)-N-(phenylmethyl)-1,2-oxazole-3-carboxamide]"
8,> 50,"COc1ccc(CNC(=O)c2cc(-c3ccc(OC)c(OC)c3)on2)cc1 [5-(3,4-dimethoxyphenyl)-N-(4-methoxybenzyl)isoxazole-3-carboxamide]"
9,> 50,"COc1cccc(-c2cc(C(=O)NCCc3ccccc3)no2)c1 [5-(3-methoxyphenyl)-N-(2-phenylethyl)-1,2-oxazole-3-carboxamide]"
10,> 50,Cc1cnc(C(=O)Nc2ccccc2-c2ccc(C)o2)cn1 [5-Methyl-pyrazine-2-carboxylic acid [2-(5-methyl-furan-2-yl)-phenyl]-amide]
11,4.66,"Cc1ccsc1C=c1sc2ncnn2c1=O [5-[(3-methyl-2-thienyl)methylene][1,3]thiazolo[3,2-b][1,2,4]triazol-6(5H)-one]"
12,3.86,"Cn1cnnc1SCc1ccc(C(=O)n2ncc(C#N)c2N)cc1 [5-amino-1-[4-[(4-methyl-1,2,4-triazol-3-yl)sulfanylmethyl]benzoyl]pyrazole-4-carbonitrile]"
13,> 50,"Cc1cccc(-n2nnc(C(=O)Nc3ccc(F)cc3)c2N)c1 [5-amino-N-(4-fluorophenyl)-1-(3-methylphenyl)-1H-1,2,3-triazole-4-carboxamide]"
14,15.2,O=C(NCc1cccs1)c1cc(-c2cccs2)on1 [5-thien-2-yl-N-(thien-2-ylmethyl)isoxazole-3-carboxamide]
15,> 50,"COc1cc2nc(-c3cccs3)oc(=O)c2cc1OC [6,7-dimethoxy-2-(2-thienyl)-3,1-benzoxazin-4-one]"
16,6.4,"COCC(C)NC(=O)c1noc2c1CCc1cc(OC)ccc1-2 (stereo unspecified) [7-methoxy-N-(1-methoxypropan-2-yl)-4,5-dihydrobenzo[g][1,2]benzoxazole-3-carboxamide]"
17,4.36,"COCCNC(=O)c1noc2c1CCc1cc(OC)ccc1-2 [7-methoxy-N-(2-methoxyethyl)-4,5-dihydrobenz[g]indoxazene-3-carboxamide]"
18,5.82,"COc1ccc2c(c1)CCc1c(C(=O)NCCN3CCOCC3)noc1-2 [7-methoxy-N-(2-morpholin-4-ylethyl)-4,5-dihydrobenzo[g][1,2]benzoxazole-3-carboxamide]"
19,1.39,"COc1ccc2c(c1)CCc1c(C(=O)NCc3cccnc3)noc1-2 [7-methoxy-N-(3-pyridinylmethyl)-4,5-dihydrobenzo[g][1,2]benzoxazole-3-carboxamide]"
20,2.91,"COc1ccc2c(c1)CCc1c(C(=O)Nc3ccn(Cc4ccc(C)cc4)n3)noc1-2 [7-methoxy-N-[1-(4-methylbenzyl)-1H-pyrazol-3-yl]-4,5-dihydronaphtho[2,1-d]isoxazole-3-carboxamide]"
21,22,"COc1ccc(C(=O)n2nc(-c3ccco3)nc2SC)cc1OC [(3,4-dimethoxyphenyl)-[3-(2-furanyl)-5-(methylthio)-1,2,4-triazol-1-yl]methanone]"
22,28.4,"Nc1nncn1C(=O)c1cccs1 [(3-Amino-[1,2,4]triazol-4-yl)-thiophen-2-yl-methanone]"

row,IC50 [µM],SMILES
1,1.31,"COc1ccc(C(=O)n2cnc(N)n2)cc1 [(3-amino-1,2,4-triazol-1-yl)-(4-methoxyphenyl)methanone]"
2,41.5,COc1ccc(C(=O)n2ccc(C)n2)cc1Br [(3-bromanyl-4-methoxy-phenyl)-(3-methylpyrazol-1-yl)methanone]
3,4.51,"Nc1nc(C(=O)N2CCOCC2)nn1C(=O)c1ccc(Cl)cc1 [(5-azanyl-3-morpholin-4-ylcarbonyl-1,2,4-triazol-1-yl)-(4-chlorophenyl)methanone]"
4,20.8,COc1ccc(S(=O)(=O)n2nc(OC(=O)c3ccccc3)cc2N)cc1 [Benzoic acid 5-amino-1-(4-methoxy-benzenesulfonyl)-1H-pyrazol-3-yl ester]
5,21.6,CCOC(=O)c1ccc(/N=C/c2nc(-c3ccccc3)oc2OC(C)=O)cc1 [MLS000027596]
6,> 50,O=C1CS/C(=N\c2ccc(O)cc2)N1c1ccc(O)cc1 [MLS000027731]
7,20.2,CC[C@@H](C)[C@H](NC(=O)OC(C)(C)C)c1nnc(S(=O)(=O)Cc2cc(C)ccc2C)o1 [MLS000042033]
8,> 50,Cc1ccc(NC(=O)Cc2nn(C)c(=O)c3ccccc23)cc1F [MLS000047015]
9,2.17,CC(=O)Nc1cccc(-c2nc3ccccc3c(=O)o2)c1 [MLS000061720]
10,4.33,O=C(c1csc2ccccc12)n1cccn1 [MLS000065687]
11,44.4,COc1ccc(-c2cc(C(=O)Nc3c(C)nn(Cc4ccccc4Cl)c3C)no2)cc1 [MLS000087058]
12,11.1,COc1ccccc1-c1cc(C(=O)NCc2ccc(Cl)cc2)no1 [MLS000087096]
13,43.2,COc1ccc(-c2cc(C(=O)NCc3ccc(Cl)cc3)no2)cc1OC [MLS000087122]
14,2.48,O=C(NCCc1ccccc1)c1noc2c1CCc1ccccc1-2 [MLS000087424]
15,5.32,O=C(NCCN1CCOCC1)c1noc2c1CCc1ccccc1-2 [MLS000087427]
16,1.58,COc1ccc2c(c1)CCc1c(C(=O)NCc3ccco3)noc1-2 [MLS000087436]
17,0.631,COc1ccc2c(c1)CCc1c(C(=O)NC3CCCCC3)noc1-2 [MLS000087437]
18,4.13,COc1ccc2c(c1)CCc1c(C(=O)NCCCn3ccnc3)noc1-2 [MLS000087439]
19,14.5,COc1ccc2c(c1)CCc1c(C(=O)Nc3ccc(OC)c(OC)c3)noc1-2 [MLS000087452]
20,4.64,COc1ccc2c(c1)CCc1c(C(=O)Nc3c(C)n(C)n(-c4ccccc4)c3=O)noc1-2 [MLS000087455]
21,1.47,COc1ccc2c(c1)CCc1c(C(=O)Nc3cc(C)n(Cc4ccc(Cl)cc4)n3)noc1-2 [MLS000087458]
22,> 50,O=c1[nH]c(CN2CCc3ccccc3C2)nc2ccccc12 [MLS000088906]

row,IC50 [µM],SMILES
1,3.43,CCC(=O)Nc1cccc(-c2nc3ccccc3c(=O)o2)c1 [MLS000090237]
2,> 50,COc1cc(NC(=O)c2csc3c2CCCC3)ncn1 [MLS000093387]
3,4.43,COc1ccc(C(=O)n2nc(-c3ccccc3)nc2N)cc1OC [MLS000099650]
4,> 50,O=C1CCCC(=O)C1=CNCCc1ccccc1 [MLS000108318]
5,2.55,CCCNC(=O)c1noc2c1CCc1ccccc1-2 [MLS000116420]
6,4.25,Cc1cc(NC(=O)c2noc3c2CCc2ccccc2-3)no1 [MLS000116422]
7,> 50,Cc1cc(NC(=O)c2noc3c2CCc2ccccc2-3)n(-c2ccccc2)n1 [MLS000116423]
8,6.45,Cc1ccccc1Cn1nc(C)c(NC(=O)c2noc3c2CCc2ccccc2-3)c1C [MLS000116424]
9,2.52,COc1ccc2c(c1)CCc1c(C(=O)NCc3ccc(F)cc3)noc1-2 [MLS000116425]
10,3.73,"O=C(NCCCn1ccnc1)c1noc2c1CCc1ccccc1-2 [N-[3-(1-imidazolyl)propyl]-4,5-dihydrobenzo[g][1,2]benzoxazole-3-carboxamide]"
11,0.923,"CCCC(=O)Nc1ccc(C(=O)n2nnc3ccccc32)cc1 [N-[4-(1H-1,2,3-benzotriazol-1-ylcarbonyl)phenyl]butanamide]"
12,3.26,Nc1cc(OC(=O)c2cccs2)nn1S(=O)(=O)c1ccccc1 [SMR000021562]
13,37.9,COc1ccccc1/N=C/c1nc(-c2ccccc2)oc1OC(C)=O [SMR000039734]
14,9.38,CC(C)[C@H](NC(=O)OC(C)(C)C)c1nnc(S(=O)(=O)Cc2c(F)cccc2Cl)o1 [SMR000044502]
15,22.6,Cc1ccccc1CS(=O)(=O)c1nnc([C@H](CC(C)C)NC(=O)OC(C)(C)C)o1 [SMR000044673]
16,1.95,CC(C)(C)OC(=O)N[C@@H](Cc1ccccc1)c1nnc(S(=O)(=O)Cc2ccccc2)o1 [SMR000047857]
17,> 50,COc1ccccc1-c1c(C#N)c(SCC(=O)N2CCCC2)nc(C)c1C(N)=O [SMR000061200]
18,10.8,Cc1nn(C(=O)c2ccccc2)c2c1C(=O)CC(C)(C)C2 [SMR000069174]
19,32.2,COc1ccc(C(=O)n2nc(-c3ccc(Cl)cc3)nc2N)cc1OC [SMR000074176]
20,2.26,Cc1cc(OC(=O)c2ccccc2)n(CCC#N)n1 [[2-(2-cyanoethyl)-5-methyl-pyrazol-3-yl] benzoate]
21,1.02,"CSc1nc(-c2ccco2)nn1C(=O)c1ccc(C)cc1 [[3-(furan-2-yl)-5-methylsulfanyl-1,2,4-triazol-1-yl]-(4-methylphenyl)methanone]"
22,1.78,"CSc1nc(-c2ccco2)nn1C(=O)c1cccs1 [[3-(furan-2-yl)-5-methylsulfanyl-1,2,4-triazol-1-yl]-thiophen-2-ylmethanone]"
